Assay results from US10738013B2, “Eluxadoline crystalline forms and processes for their preparation” (priority 2017, dated 2020).

Legend:
Dissolution test = format: physicochemical; settings: 50 mM phosphate buffer pH=7.4, 37° C., 110 rpm
Experimental: Dissolution tests were performed by means of Sotax AT7 Smart equipped with 6×800 mL volume vessels and using a 50 mM phosphate buffer pH=7.4, previously heated to 37° C. 20 mg of the sample to be tested were placed in each vessel, and stirred (with paddles) at 110 rpm for 60 minutes at 37±0.2° C. Aliquots were taken at 5, 10, 20, 30, 45 and 60 min, filtered through 0.45 μm Chromafil Xtra RC 45/25 syringe filter and analysed by UV/VIS spectrometer Perkin Elmer Lambda 35, 1 cm quartz cell (absorbance at 203 nm). pH was determined using a Mettler Toledo pH Meter FE20 equipped with a InLab®420 electrode.
A portion of the product was subjected to a dissolution test in 50 mM phosphate buffer at pH=7.4 giving the results summarised below: […]

[1] = Thermal (polymorphic) stability at 120° C. by XRPD; format: physicochemical; settings: maintained at 120° C. for 24 or 48 hours, cooled to room temperature
Experimental: By “polymorphically stable” it is meant that the crystalline Form α′ of the present invention when stored under stressed conditions i.e., up to a temperature of 120° C. for 24 or 48 hours, show no signs of crystallinity associated to other polymorphs of eluxadoline (e.g. Form β) as judged by the absence of their relevant peaks in an X-ray powder diffractogram (XRPD).
Analyses were performed on a Bruker AXS D8 Advance diffractometer (40 kV, 40 mA, λ=1.5418 Å), equipped with a linear Lynxeye position sensitive detector, set at 300 mm from the sample (Ni-filtered Cu-Kα1,2 radiation). Data collection was made in coupled mode and in theta-theta configuration, in the 3-30° 2-theta, sampling with a 0.02° step scan. Samples were gently ground in an agate mortar, and then deposited in the 0.2 mm-deep hollow of a silicon monocrystal zero background plate.
The polymorphically and chemically stable form α′ of eluxadoline, prepared as described in Examples 10 to 12, were maintained at 120° C. for 24 or 48 hours.

## COc1ccc(CN(C(=O)[C@@H](N)Cc2c(C)cc(C(N)=O)cc2C)[C@@H](C)c2nc(-c3ccccc3)c[nH]2)cc1C(=O)O [form α′, 5-({[(2S)-2-amino-3-(4-carbamoyl-2,6-dimethylphenyl)propanoyl][(1S)-1-(4-phenyl-1H-imidazol-2-yl)ethyl]amino}methyl)-2-methoxybenzoic acid]
Dissolution test; 5 min
  % dissolved: 6.06%
Dissolution test; 10 min
  % dissolved: 13.93%
Dissolution test; 20 min
  % dissolved: 17.81%
Dissolution test; 30 min
  % dissolved: 27.87%
Dissolution test; 45 min
  % dissolved: 38.40%
Dissolution test; 60 min
  % dissolved: 60.17%
[1]
  XRPD after thermal stress (polymorphic stability): XRPD spectrum corresponding to the one obtained in example 10
